Measurements: paper PMC11434613, “The Remarkable and Selective In Vitro Cytotoxicity of Synthesized Bola-Amphiphilic Nanovesicles on Etoposide-Sensitive and -Resistant Neuroblastoma Cells” (Nanomaterials, 2024)
Values joined by “and” are separate entries in the source; they are usually repeats but may differ in a detail not shown here. Identical values can stand only once.

Experiments:
[1] = Presto Blue viability test on MRC-5 lung fibroblasts; format: cell-based, human; conditions: human
Experimental: (§1) Human MRC-5 lung fibroblast cells were used (ICLC-IRCCS San Martino, Genoa, Italy); cells were expanded in DMEM/F12 50%/50% (Dulbecco’s Modified Eagle Medium/Ham’s F12 50/50 Mix; Corning, Pisa, Italy; cat. n. 10-090-CV; ThermoFisher Scientific, Segrate (MI), Italy, supplemented with 10% fetal bovine serum (GIBCO-Invitrogen, GIBCO-ThermoFisher Life Science, Segrate, Italy, catalog number (cat. n.) 10270-098) and 2 mM glutamine (Euro-Clone; Pero, MI, Italy; cat. n. EC B3000D) at 37 °C under 5% CO2 aeration. After expansion, cells were washed three times with sterile phosphate buffered solution (PBS; VWR, Milano, Italy, cat. n. 392-0442), detached with 0.25% Trypsin solution (Corning; cat-25-050-CI), collected in complete medium, and centrifuged at 400× g for 12 min. The supernatant was discarded, and cells were suspended in PBS, counted, and centrifuged again as mentioned above. Cells were then resuspended in complete medium, seeded into 24-well plates (20,000 cells/well) and allowed to adhere to the plate for the next 24 h. Subsequently, non-adherent cells and the plating medium were discarded, and fresh standard medium or treatment medium were added. Treatment media contained BPPB at different concentrations (0.5, 1.0, 5.0, 25.0, 50.0, 75.0 and 100.0 μM); triplicate wells for each concentration were tested simultaneously, as well as controls. The medium was changed every day. Cells were photographed and assayed for viability prior to treatment (time 0; T0) and after 24, 48, and 72 h subsequently (T24, T48 and T72). Bright field images of each well/treatment were acquired using a Nikon Digital Sigh DS-5Mc camera (Nikon Europe B.V., Amstelveen, The Netherlands) mounted on an inverted Olympus CKX-41 microscope (Evident Europe GmbH, Segrate (Milan), Italy) (4×, 10× and 20× enlargements).
(§2) Briefly, at the indicated time points, cells were washed twice with PBS and incubated in the dark a 37 °C for 4 h with fresh complete medium supplemented with 10% Presto Blue ^TM. Aliquots of the Presto Blue ^TM-containing medium were incubated in the same conditions, to be used as reaction blanks. Supernatants and blanks were then collected and analyzed using a Spectra MR multi-plate reader spectrophotometer (Dynex Technologies; Chantilly, VA, USA) at 570 and 600 nm. The results were calculated as the average of treatment replicas (triplicates) ± S.D., normalizing each 570 nm reading to its corresponding value at 600 nm, subtracting the average blank value, and normalizing the results at each time point to the initial reading at T0.

[2] = test system: Human MRC-5 lung fibroblast cells; assay: as above; format: cell-based; conditions: for IC50: concentration range 0.5–5 µM
Experimental: as §1, §2

[3] = MTT cytotoxicity assay on Cos-7 cells; format: cell-based, African green monkey; conditions: African green monkey
Experimental: (§3) To assess the cytotoxicity properties of BPPB, the MTT (3-(4,5-dimethylthiazol-2-yl)-2,5-diphenyltetrazolium bromide) cell proliferation assay (Abcam, Prodotti Gianni s.r.l., Milano, Italy, Cat#ab2011091) was performed, following the manufacturer’s protocol, as previously reported. This time, the increasing concentrations of BPPB were in the range of 0.4–85.3 µM. The cell survival rate, expressed as cell viability percentage (%), was evaluated based on the experimental outputs of treated groups vs. the untreated groups (CTR) and was calculated as follows: cell viability (%) = (OD treated cells − OD blank)/(OD untreated cells − OD blank) × 100%.
(§4) In this study, the cytotoxicity profile of BPPB was assessed in both immortalized human liver cells (HepG2) cells, as in our previous works, and in transformed African green monkey kidney fibroblast cells (Cos-7), as reported in a recent paper. Specifically, we evaluated the cytotoxicity of BPPB by carrying out both the MTT proliferation assay and the lactate dehydrogenase (LHD) cytotoxicity assay, which measures the LDH activity as an indicator of cell death. Both cell lines were exposed for 24 h to increasing concentrations of BPPB (0.4–85.3 µM). Growth inhibition/death were determined by the MTT test, while cell cytotoxicity was determined by LDH assay, with respect to untreated control cells. Results are reported as bar graphs in Figure 8 and as dispersion graphs in Figures S13 and S14 in Supplementary Materials (Section S2).

Cos-7 cells [4] = assay: MTT cytotoxicity assay on Cos-7 cells; format: cell-based, African green monkey; conditions: for IC50: MTT, concentration range 0.4–85.3 µM
Experimental: as §3, §4

Cos-7 cells [5] = assay: LDH cytotoxicity assay on Cos-7 cells; format: cell-based; conditions: 24 h
Experimental: To assess the cytotoxicity properties of BPPB, the lactate dehydrogenase (LDH) cytotoxicity assay (Abcam, Cat#ab102526) was performed, following manufacturer’s protocol, as previously described. This time, the increasing concentrations of BPPB were in the range 0.4–85.3 µM.
as §4

## c1ccc([P+](CCCCCCCCCCCC[P+](c2ccccc2)(c2ccccc2)c2ccccc2)(c2ccccc2)c2ccccc2)cc1 [BPPB, 1,1-(1,12-dodecanediyl)bis [1,1, 1]-triphenylphosphonium di-bromide]
[1]; 24 h, read-out: Selectivity index (SI) = IC50 MRC-5 / IC50 HTLA-ER
  selectivity ratio at 24 h: 2.5
[1]; 48 h, read-out: Selectivity index (SI) = IC50 MRC-5 / IC50 HTLA-ER
  selectivity ratio at 48 h: ~1
[1]; 72 h, read-out: Selectivity index (SI) = IC50 MRC-5 / IC50 HTLA-ER
  selectivity ratio at 72 h: ~1
[1]; MRC-5 lung fibroblast cells, 1.0 µM, 48 h, read-out: Percentage of viable MRC-5 cells with respect to seeded cells at T0
  viability at 48 h, 1 µM: 26.8%
[1]; MRC-5 lung fibroblast cells, 1.0 µM, 72 h, read-out: Percentage of viable MRC-5 cells with respect to seeded cells at T0
  viability at 72 h, 1 µM: 30.6%
[1]; MRC-5 lung fibroblast cells, 5 µM, 48–72 h, read-out: Cell viability MRC-5
  viability at 5 µM: 3%
[1]; MRC-5 lung fibroblast cells, 5 µM, 24 h, read-out: Cell viability MRC-5
  viability at 24 h, 5 µM: 38%
[1]; MRC-5 lung fibroblast cells, 5.0 µM, 48 h, read-out: Percentage of viable MRC-5 cells with respect to seeded cells at T0
  viability at 48 h, 5 µM: 2.78%
[1]; MRC-5 lung fibroblast cells, 5.0 µM, 72 h, read-out: Percentage of viable MRC-5 cells with respect to seeded cells at T0
  viability at 72 h, 5 µM: 3.04%
[2]; 24 h
  Selectivity index (SI) = IC50 MRC-5 / IC50 HTLA-230: 11.68
  Selectivity index (SI) = IC50 MRC-5 / IC50 HTLA-ER: 2.49
[2]; 24 h exposure
  IC50: 2770 nM
[2]; 48 h
  Selectivity index (SI) = IC50 MRC-5 / IC50 HTLA-230: 3.77
  Selectivity index (SI) = IC50 MRC-5 / IC50 HTLA-ER: 0.80
[2]; 72 h
  Selectivity index (SI) = IC50 MRC-5 / IC50 HTLA-230: 4.01 and 4.07
  Selectivity index (SI) = IC50 MRC-5 / IC50 HTLA-ER: 1.11
[2]; BPPB SI vs MRC-5, 24 h (2.49) against ETO SI (0.32)
  Fold higher SI for HTLA-ER than that of ETO: 7.8 fold
[2]; Homo sapiens, MRC5, 24 h, 24 h exposure
  IC50: 2800 nM
[2]; Homo sapiens, MRC5, 48 h, 48 h exposure
  IC50: 740 ± 572 nM
[2]; Homo sapiens, MRC5, 72 h, 72 h exposure
  IC50: 928 ± 896 nM
[2]; any concentration equal to or higher than 25 µM, within 24 h
  Effect on plated MRC-5 cells: detachment and death of all plated cells
[3]; Cos-7 cells, 4.3 µM, read-out: Cell viability Cos-7 (MTT)
  viability at 24 h, 4.3 µM: 64.2%
[3]; Cos-7 cells, 8.5 µM, read-out: Cell viability Cos-7 (MTT)
  viability at 24 h, 8.5 µM: 27.4%
[3]; read-out: Selectivity index (SI) = IC50 Cos-7 / IC50 HTLA-ER
  selectivity ratio at 24 h: 4.42
Cos-7 cells [4]; 24 h
  Selectivity index (SI) = IC50 Cos-7 / IC50 HTLA-230: 20.72
  IC50: 4910 ± 810 nM
Cos-7 cells [4]; Chlorocebus sabaeus, COS-7, 24 h
  IC50: 4900 nM
Cos-7 cells [4]; MTT test, 24 h
  Concentrations with a safety profile toward Cos-7: ≤ 4.3 µM
Cos-7 cells [5]; 4.3 µM
  LDH release Cos-7 (optical density): 0.30 OD
Cos-7 cells [5]; 8.5 µM
  LDH release Cos-7 (optical density): 0.80 OD
Cos-7 cells [5]; LDH test
  Concentrations with a safety profile toward Cos-7: ≤ 4.3 µM
